Laboratory results taken from ChEMBL document CHEMBL1201862, “PubChem BioAssay data set” (2004).
Calls of active or inactive are those of the source.

Tests used:
[1] = NIH-3T3 fibroblast cytotoxicity, dose response, cytotoxicity control, cell-based, fluorescence, Alamar Blue, secondary assay (AID 2327); type: functional;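 further: NIH-3T3 mouse fibroblasts cultured with fluconazole at 8 µg/mL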
[2] = fluconazole-exposed Candida albicans growth modulators – fluorescence, retest, confirmation (AID 2467); type: functional, cell-based
[3] = microbe, parasite or virus in culture; type: functional; conditions: Mycobacterium tuberculosis
[4] = target: T1, Serine/threonine-protein phosphatase (Candida dubliniensis (strain CD36 / CBS 7987 / NCPF 3949 / NRRLY-17841) (Yeast), UniProt B9W6M3); assay: blockers of CaCl2-induced CDRE-lacZ signaling – S. cerevisiae, luminescence, secondary, dose response (AID 2388); type: functional, cell-based;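 further: yeast reporter cells carrying a calcineurin-responsive lacZ construct stimulated with calcium chloride; luminescent beta-galactosidase reporter signal in whole cells rather than isolated phosphatase activity; potency for inhibition where a drop in reporter signal means calcineurin blockade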
T1 sequence (B9W6M3 whole entry): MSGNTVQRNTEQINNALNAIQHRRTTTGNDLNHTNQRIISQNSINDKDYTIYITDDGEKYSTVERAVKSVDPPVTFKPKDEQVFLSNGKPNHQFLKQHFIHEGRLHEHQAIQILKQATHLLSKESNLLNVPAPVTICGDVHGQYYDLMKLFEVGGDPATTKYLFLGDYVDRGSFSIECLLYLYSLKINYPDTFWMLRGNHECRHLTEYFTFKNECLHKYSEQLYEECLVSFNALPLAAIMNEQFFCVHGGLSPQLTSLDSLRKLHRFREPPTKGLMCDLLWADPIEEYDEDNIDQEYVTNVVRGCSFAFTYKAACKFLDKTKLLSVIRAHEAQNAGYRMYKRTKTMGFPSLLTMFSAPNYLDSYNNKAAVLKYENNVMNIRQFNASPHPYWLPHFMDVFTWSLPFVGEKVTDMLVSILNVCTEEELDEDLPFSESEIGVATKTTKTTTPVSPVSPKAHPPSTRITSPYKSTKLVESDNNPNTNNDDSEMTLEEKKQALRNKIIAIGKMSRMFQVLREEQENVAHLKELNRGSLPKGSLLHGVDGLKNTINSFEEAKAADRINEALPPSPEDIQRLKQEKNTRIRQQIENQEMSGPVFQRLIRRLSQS

[5] = THP-1 cell cytotoxicity, dose response, cytotoxicity control for non-replicating M. tuberculosis project (AID 489025); type: functional
[6] = HepG2 cell cytotoxicity, dose response, cytotoxicity control for non-replicating M. tuberculosis project (AID 489018); type: functional; conditions: Mycobacterium tuberculosis
[7] = Vero E6 cell cytotoxicity, dose response, cytotoxicity control for non-replicating M. tuberculosis project, secondary assay (AID 492998); type: functional, VeroE6; conditions: Vero C1008
[8] = cells; type: functional
[9] = target: ATP-dependent molecular chaperone HSP82 (Candida albicans (strain WO-1) (Yeast), UniProt C4YTQ8); assay: steroid-induced GRE reporter decrease in yeast – S. cerevisiae, luminescence, Hsp90 inhibitor project, dose response (AID 2400); type: functional, cell-based;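 further: beta-galactosidase luminescence from glucocorticoid response element reporter as proxy for Hsp90 function; inhibitor potency where signal loss means Hsp90 inhibition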
ATP-dependent molecular chaperone HSP82, sequence (C4YTQ8 whole entry): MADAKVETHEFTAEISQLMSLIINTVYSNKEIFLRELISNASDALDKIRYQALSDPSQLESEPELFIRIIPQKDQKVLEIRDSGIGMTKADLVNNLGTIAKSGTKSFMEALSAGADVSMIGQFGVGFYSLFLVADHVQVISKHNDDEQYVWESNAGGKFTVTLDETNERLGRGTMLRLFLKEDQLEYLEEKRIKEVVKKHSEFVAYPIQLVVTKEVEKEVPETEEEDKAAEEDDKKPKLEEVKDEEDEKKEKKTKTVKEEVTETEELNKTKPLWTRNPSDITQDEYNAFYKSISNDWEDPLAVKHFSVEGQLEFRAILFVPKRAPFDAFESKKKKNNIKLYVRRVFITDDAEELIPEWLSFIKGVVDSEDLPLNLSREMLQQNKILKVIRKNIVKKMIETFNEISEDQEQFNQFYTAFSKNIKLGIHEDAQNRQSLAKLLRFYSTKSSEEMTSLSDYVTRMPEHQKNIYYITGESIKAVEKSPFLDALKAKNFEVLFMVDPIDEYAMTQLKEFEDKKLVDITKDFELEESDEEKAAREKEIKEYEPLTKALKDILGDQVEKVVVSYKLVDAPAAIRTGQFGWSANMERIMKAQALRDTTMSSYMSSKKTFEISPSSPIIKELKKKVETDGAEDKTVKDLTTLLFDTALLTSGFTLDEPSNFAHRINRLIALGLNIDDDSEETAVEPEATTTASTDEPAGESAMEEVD

[10] = target: Serine/threonine-protein kinase pim-1 (Homo sapiens, UniProt P11309); type: functional
Serine/threonine-protein kinase pim-1, sequence (P11309 whole entry): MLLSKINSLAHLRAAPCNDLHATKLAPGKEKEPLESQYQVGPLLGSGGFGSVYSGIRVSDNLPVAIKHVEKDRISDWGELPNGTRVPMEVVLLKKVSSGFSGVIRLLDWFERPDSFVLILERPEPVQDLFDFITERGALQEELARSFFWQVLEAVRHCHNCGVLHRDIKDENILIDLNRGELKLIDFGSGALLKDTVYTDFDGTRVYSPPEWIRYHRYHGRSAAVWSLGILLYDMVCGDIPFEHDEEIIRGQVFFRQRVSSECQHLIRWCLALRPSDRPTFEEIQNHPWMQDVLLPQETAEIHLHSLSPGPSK

[11] = target: Cell division cycle 7-related protein kinase (Homo sapiens, UniProt O00311); type: functional;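 further: value obtained from a kinome-wide kinase panel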
Cell division cycle 7-related protein kinase, sequence (O00311 whole entry): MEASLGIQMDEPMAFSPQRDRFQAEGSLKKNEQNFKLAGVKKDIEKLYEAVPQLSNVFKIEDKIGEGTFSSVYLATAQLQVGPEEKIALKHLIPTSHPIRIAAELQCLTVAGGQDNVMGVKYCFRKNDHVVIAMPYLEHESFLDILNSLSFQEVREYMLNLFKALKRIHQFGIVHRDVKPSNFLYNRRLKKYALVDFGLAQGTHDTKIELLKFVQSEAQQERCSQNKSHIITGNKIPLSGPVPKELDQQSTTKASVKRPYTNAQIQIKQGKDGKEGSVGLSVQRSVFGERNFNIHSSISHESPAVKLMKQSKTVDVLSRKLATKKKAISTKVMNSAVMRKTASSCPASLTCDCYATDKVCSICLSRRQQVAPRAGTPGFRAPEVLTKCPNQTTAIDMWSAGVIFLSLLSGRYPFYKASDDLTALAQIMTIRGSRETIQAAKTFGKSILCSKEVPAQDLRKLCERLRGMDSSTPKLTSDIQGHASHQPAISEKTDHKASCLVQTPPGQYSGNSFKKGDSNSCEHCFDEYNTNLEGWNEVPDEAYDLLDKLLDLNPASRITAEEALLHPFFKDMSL

[12] = target: Homeodomain-interacting protein kinase 2 (Homo sapiens, UniProt Q9H2X6); type: functional;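 further: measured within a kinome-wide kinase profiling panel, HIPK2 being one panel member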
Homeodomain-interacting protein kinase 2, sequence (Q9H2X6 whole entry): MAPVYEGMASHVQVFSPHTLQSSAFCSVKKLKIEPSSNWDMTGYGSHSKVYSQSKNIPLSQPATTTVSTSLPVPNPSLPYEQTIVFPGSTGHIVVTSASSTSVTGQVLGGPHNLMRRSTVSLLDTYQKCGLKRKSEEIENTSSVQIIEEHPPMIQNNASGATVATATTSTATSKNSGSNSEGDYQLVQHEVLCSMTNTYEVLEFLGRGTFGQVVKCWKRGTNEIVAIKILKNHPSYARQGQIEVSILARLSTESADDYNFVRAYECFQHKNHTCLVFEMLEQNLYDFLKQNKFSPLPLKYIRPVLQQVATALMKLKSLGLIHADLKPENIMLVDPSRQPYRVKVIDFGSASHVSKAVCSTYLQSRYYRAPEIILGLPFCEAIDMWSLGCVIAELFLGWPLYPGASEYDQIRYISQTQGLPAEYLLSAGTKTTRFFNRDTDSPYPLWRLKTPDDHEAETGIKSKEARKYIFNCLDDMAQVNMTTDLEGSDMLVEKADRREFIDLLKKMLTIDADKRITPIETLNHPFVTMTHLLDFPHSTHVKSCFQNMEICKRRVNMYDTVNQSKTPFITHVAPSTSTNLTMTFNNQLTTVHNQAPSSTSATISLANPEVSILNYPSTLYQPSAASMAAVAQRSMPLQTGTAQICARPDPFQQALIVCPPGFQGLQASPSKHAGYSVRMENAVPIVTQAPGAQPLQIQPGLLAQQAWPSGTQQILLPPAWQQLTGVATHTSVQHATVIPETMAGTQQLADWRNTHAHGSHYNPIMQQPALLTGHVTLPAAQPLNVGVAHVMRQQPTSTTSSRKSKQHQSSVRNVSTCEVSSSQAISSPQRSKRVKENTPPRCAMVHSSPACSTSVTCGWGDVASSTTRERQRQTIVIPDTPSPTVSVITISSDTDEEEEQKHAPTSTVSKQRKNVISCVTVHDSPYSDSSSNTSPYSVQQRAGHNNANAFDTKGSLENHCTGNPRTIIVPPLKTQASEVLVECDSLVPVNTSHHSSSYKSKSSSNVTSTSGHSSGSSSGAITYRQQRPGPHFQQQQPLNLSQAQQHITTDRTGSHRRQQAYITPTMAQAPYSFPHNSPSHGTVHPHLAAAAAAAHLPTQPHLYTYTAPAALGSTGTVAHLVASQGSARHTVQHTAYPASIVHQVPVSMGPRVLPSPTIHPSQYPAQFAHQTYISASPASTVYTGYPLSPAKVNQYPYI

[13] = target: T2, Interleukin-1 receptor-associated kinase 4 (Homo sapiens, UniProt Q9NWZ3); type: functional
T2 sequence (Q9NWZ3 whole entry): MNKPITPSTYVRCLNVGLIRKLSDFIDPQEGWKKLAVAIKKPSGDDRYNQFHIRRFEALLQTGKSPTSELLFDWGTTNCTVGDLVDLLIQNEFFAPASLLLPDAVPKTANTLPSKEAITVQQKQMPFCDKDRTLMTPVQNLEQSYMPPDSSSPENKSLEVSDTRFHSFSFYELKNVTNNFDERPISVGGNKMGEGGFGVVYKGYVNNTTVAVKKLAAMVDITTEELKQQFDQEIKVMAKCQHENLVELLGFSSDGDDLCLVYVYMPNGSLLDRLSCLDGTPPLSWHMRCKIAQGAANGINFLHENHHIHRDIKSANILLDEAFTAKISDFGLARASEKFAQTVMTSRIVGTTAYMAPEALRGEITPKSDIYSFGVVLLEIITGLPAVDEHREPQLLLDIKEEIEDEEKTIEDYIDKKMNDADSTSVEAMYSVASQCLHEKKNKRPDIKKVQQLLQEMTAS

[14] = target: Glycogen synthase kinase-3 beta (Homo sapiens, UniProt P49841); type: functional;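 further: value comes from a broad kinome profiling panel, with GSK3B as the panel member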
Glycogen synthase kinase-3 beta, sequence (P49841 whole entry): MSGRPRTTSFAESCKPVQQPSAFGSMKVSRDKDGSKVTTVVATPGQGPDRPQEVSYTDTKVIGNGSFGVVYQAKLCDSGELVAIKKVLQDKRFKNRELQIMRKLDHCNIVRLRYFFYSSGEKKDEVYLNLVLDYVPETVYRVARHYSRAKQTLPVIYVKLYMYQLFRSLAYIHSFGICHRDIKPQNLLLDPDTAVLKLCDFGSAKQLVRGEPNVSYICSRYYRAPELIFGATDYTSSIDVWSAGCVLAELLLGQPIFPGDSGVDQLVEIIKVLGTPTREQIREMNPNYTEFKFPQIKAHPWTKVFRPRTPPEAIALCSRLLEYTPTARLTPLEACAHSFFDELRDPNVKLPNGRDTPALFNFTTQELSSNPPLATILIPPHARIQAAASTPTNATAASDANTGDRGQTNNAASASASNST

[15] = target: cAMP-dependent protein kinase catalytic subunit alpha (Homo sapiens, UniProt P17612); type: functional
[16] = target: Dual specificity protein kinase CLK4 (Homo sapiens, UniProt Q9HAZ1); type: functional
Dual specificity protein kinase CLK4, sequence (Q9HAZ1 whole entry): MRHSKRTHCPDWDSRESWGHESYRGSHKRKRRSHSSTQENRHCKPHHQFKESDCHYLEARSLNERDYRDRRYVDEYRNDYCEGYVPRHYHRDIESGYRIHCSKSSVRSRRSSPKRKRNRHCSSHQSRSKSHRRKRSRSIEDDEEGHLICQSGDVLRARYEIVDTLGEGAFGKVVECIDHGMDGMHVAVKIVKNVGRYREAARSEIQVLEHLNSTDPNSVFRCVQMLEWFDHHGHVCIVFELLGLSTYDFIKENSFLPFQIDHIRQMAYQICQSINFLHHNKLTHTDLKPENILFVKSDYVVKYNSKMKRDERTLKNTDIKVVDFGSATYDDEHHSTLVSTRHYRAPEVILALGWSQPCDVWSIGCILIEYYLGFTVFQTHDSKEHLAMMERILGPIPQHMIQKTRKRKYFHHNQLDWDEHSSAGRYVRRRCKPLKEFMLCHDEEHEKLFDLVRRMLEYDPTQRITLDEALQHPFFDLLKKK

[17] = target: Mitogen-activated protein kinase kinase kinase kinase 4 (Homo sapiens, UniProt O95819); type: functional
Mitogen-activated protein kinase kinase kinase kinase 4, sequence (O95819 whole entry, the tested form may be a part): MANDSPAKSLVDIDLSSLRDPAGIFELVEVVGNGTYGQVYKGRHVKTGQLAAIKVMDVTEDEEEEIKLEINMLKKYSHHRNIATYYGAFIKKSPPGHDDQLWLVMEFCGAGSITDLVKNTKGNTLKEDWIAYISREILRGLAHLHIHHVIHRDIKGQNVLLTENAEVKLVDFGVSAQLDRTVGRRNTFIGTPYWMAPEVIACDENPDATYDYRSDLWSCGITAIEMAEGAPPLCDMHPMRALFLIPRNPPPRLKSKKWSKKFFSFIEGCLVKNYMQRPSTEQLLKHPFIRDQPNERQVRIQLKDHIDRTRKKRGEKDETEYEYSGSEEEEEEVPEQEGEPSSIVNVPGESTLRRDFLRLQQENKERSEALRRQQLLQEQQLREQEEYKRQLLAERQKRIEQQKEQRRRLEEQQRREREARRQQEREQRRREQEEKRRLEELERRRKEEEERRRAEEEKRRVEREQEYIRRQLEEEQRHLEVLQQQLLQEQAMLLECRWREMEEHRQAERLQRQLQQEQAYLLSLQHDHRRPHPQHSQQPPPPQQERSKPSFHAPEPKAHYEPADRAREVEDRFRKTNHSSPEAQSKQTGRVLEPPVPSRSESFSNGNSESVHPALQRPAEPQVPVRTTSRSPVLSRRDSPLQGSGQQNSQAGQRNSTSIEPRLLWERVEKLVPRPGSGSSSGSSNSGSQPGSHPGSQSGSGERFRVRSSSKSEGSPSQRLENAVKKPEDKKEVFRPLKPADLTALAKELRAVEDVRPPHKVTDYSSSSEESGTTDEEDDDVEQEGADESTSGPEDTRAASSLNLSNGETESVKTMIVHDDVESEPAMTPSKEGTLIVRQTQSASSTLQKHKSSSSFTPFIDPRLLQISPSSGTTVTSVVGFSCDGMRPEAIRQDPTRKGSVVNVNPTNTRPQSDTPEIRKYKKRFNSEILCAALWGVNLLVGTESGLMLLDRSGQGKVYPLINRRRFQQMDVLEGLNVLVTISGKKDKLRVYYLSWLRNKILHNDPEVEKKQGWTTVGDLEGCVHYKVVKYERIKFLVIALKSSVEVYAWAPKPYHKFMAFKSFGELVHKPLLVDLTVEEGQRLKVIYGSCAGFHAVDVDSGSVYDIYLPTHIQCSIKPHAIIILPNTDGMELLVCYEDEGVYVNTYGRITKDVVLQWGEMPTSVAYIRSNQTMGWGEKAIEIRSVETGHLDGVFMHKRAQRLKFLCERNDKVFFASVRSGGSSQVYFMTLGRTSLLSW

[18] = target: T3, Hepatocyte nuclear factor 4-alpha (Homo sapiens, UniProt P41235); type: functional, cell-based;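 further: biochemical luminescence-based dose-response counterscreen measuring inhibition of HNF4 dimerization, run alongside a screen for blockers of ABHD5–perilipin-5 interaction; split luciferase complementation of HNF4 fusion proteins in cell lysate measuring dimerization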
T3 sequence (P41235 whole entry): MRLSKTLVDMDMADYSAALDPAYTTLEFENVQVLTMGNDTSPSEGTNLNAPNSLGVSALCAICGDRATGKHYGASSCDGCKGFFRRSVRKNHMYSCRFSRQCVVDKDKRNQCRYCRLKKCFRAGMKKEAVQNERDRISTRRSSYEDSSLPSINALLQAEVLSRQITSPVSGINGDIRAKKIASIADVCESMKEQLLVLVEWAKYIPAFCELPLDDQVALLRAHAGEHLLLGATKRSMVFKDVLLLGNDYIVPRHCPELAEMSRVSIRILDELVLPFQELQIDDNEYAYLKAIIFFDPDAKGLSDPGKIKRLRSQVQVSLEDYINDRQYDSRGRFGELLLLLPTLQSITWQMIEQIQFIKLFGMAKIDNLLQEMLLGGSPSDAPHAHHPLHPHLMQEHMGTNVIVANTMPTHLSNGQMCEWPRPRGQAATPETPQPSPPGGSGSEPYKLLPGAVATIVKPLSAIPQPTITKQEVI

Row | Compound | EC50 [1] | EC50 [2] | CC50 [3] | EC50 [4] | CC50 [5] | CC50 [6] | CC50 [7] | IC50 [8] | EC50 [9] | Ki [10] | Ki [11] | Ki [12] | Ki [13] | Ki [14] | Ki [15] | Ki [16] | Ki [17] | IC50 [18]
1 | O=c1c2ccc(Cl)cc2nc(-c2ccc([N+](=O)[O-])cc2)n1O | 99.4 µM (active) | 0.43 µM (active) | 21.4 µM (active) | > 180 µM (inactive) | 11.8 µM (active) | 16.8 µM (active) | 12.1 µM (active) | 8.17 µM (active) | 44.6 µM (active) | – | – | – | – | – | – | – | – | –
2 | Fc1cccc(-c2c[nH]c3ncccc23)c1 | – | – | – | – | – | – | – | – | – | 7.94 µM (active) | 0.0631 µM (active) | 1 µM (active) | 2.51 µM (active) | 2 µM (active) | 2.51 µM (active) | 0.0398 µM (active) | 0.00316 µM (active) | –
3 | CCCCOc1cc(-c2ccncc2)cc2[nH]nc(N)c12 | – | – | – | – | – | – | – | – | – | 1.58 µM (active) | 0.0158 µM (active) | 0.794 µM (active) | 0.631 µM (active) | 0.631 µM (active) | 1.26 µM (active) | 0.01 µM (active) | 0.251 µM (active) | –
4 | C=CCNc1cc(-c2c[nH]c3ncccc23)cc(Cl)n1 | – | – | – | – | – | – | – | – | – | 0.794 µM (active) | 0.000794 µM (active) | 0.0501 µM (active) | 0.631 µM (active) | 0.1 µM (active) | 0.398 µM (active) | 0.00398 µM (active) | – | –
5 | COc1ccc(C(C(=O)NCc2ccccc2)n2c(=O)c(-c3ccco3)nc3ccccc32)cc1 (stereo not drawn) | – | – | – | – | – | – | – | – | – | – | – | – | – | – | – | – | – | 2.46 µM (active)
